According to ChEMBL document CHEMBL1201862, “PubChem BioAssay data set” (2004):
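Where inhibition never reached the appropriate level, the endpoint shown equals the highest concentration tested. Otherwise, values were interpolated linearly from a five-concentration, 48-hour dose response in 96-well plates. At the GI50, growth is halved.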 The source made the active and inactive calls. No stated cut-off is given here; in the data, active = GI50 up to about 1.1 µM and inactive = higher.

Key:
Assay in all cases: growth of human tumour cells (NCI), 48 h
[1] = test system: 786-0
[2] = test system: A498
[3] = test system: A549
[4] = test system: CAKI-1
[5] = test system: CCRF-CEM
[6] = test system: COLO 205
[7] = test system: DLD-1
[8] = test system: DMS-273
[9] = test system: EKVX
[10] = test system: HCC 2998
[11] = test system: HCT-116
[12] = test system: HL-60
[13] = test system: HOP-62
[14] = test system: HOP-92
[15] = test system: IGROV-1
[16] = test system: K562
[17] = test system: KM-20L2
[18] = test system: KM12
[19] = test system: LOX IMVI
[20] = test system: M14
[21] = test system: M19-MEL
[22] = test system: MOLT-4
[23] = test system: NCI-H23
[24] = test system: NCI-H460
[25] = test system: NCI-H522
[26] = test system: OVCAR-3
[27] = test system: OVCAR-4
[28] = test system: OVCAR-8
[29] = test system: RPMI-8226
[30] = test system: RXF 393
[31] = test system: RXF 631
[32] = test system: SF-268
[33] = test system: SF-295
[34] = test system: SF-539
[35] = test system: SK-MEL-28
[36] = test system: SK-MEL-2
[37] = test system: SK-MEL-5
[38] = test system: SK-OV-3
[39] = test system: SN12C
[40] = test system: SNB-19
[41] = test system: SNB-75
[42] = test system: SNB-78
[43] = test system: SR
[44] = test system: SW-620
[45] = test system: TK-10
[46] = test system: U-251
[47] = test system: UACC-257
[48] = test system: UACC-62
[49] = test system: UO-31
[50] = test system: XF498
[51] = test system: ACHN
[52] = test system: DMS-114
[53] = test system: HCT-15
[54] = test system: LXFL 529
[55] = test system: Malme-3M
[56] = test system: NCI-H226
[57] = test system: OVCAR-5
[58] = test system: HOP-18
[59] = test system: HT-29

Measured: GI50

COC(=O)c1c(N)n[nH]c1N
inactive: [1] > 100 µM | [2] > 100 µM | [3] > 100 µM | [4] > 100 µM | [5] > 100 µM | [6] > 100 µM | [7] > 100 µM | [8] > 100 µM | [9] > 100 µM | [10] > 100 µM | [11] > 100 µM | [12] > 100 µM | [13] > 100 µM | [14] > 100 µM | [15] > 100 µM | [16] > 100 µM | [17] > 100 µM | [18] > 100 µM | [19] > 100 µM | [20] > 100 µM | [21] > 100 µM | [22] > 100 µM | [23] > 100 µM | [24] > 100 µM | [25] > 100 µM | [26] > 100 µM | [27] > 100 µM | [28] > 100 µM | [29] > 100 µM | [30] > 100 µM | [31] > 100 µM | [32] > 100 µM | [33] > 100 µM | [34] > 100 µM | [35] > 100 µM | [36] > 100 µM | [37] > 100 µM | [38] > 100 µM | [39] > 100 µM | [40] > 100 µM | [41] > 100 µM | [42] > 100 µM | [43] > 100 µM | [44] > 100 µM | [45] > 100 µM | [46] > 100 µM | [47] > 100 µM | [48] 77.6 µM | [49] > 100 µM | [50] > 100 µM

COC(=O)[C@H]1C=C[C@@H](C)n2c(=O)c3cc4ccccc4cc3c(=O)n21
> 100 µM: [53]
inactive: [1] > 100 µM | [2] > 100 µM | [3] > 100 µM | [51] > 100 µM | [4] > 100 µM | [5] > 100 µM | [6] > 100 µM | [7] > 100 µM | [52] > 100 µM | [8] > 100 µM | [9] > 100 µM | [10] > 100 µM | [11] > 100 µM | [12] > 100 µM | [13] > 100 µM | [14] > 100 µM | [15] > 100 µM | [16] > 100 µM | [17] > 100 µM | [18] > 100 µM | [19] > 100 µM | [54] > 100 µM | [20] > 100 µM | [21] > 100 µM | [22] > 100 µM | [55] > 100 µM | [56] > 100 µM | [23] > 100 µM | [24] > 100 µM | [25] > 100 µM | [26] > 100 µM | [57] > 100 µM | [28] > 100 µM | [29] > 100 µM | [30] > 100 µM | [31] > 100 µM | [32] > 100 µM | [33] > 100 µM | [34] > 100 µM | [35] > 100 µM | [36] > 100 µM | [37] > 100 µM | [38] > 100 µM | [39] > 100 µM | [40] > 100 µM | [41] 43.6 µM | [42] > 100 µM | [43] > 100 µM | [44] > 100 µM | [45] > 100 µM | [46] > 100 µM | [47] > 100 µM | [49] > 100 µM | [50] 98.9 µM

CC(C)=CC(=O)Cc1nc2ccccc2[nH]c1=O
inactive: [1] 82.4 µM | [2] > 100 µM | [3] > 100 µM | [51] > 100 µM | [4] 76.7 µM | [5] 64.7 µM | [6] > 100 µM | [7] > 100 µM | [8] > 100 µM | [9] 47.3 µM | [10] > 100 µM | [11] > 100 µM | [12] 49.5 µM | [58] 37 µM | [13] 76 µM | [14] 22.4 µM | [59] > 100 µM | [15] > 100 µM | [16] > 100 µM | [17] > 100 µM | [18] > 100 µM | [19] > 100 µM | [54] > 100 µM | [20] > 100 µM | [21] > 100 µM | [22] > 100 µM | [55] > 100 µM | [56] > 100 µM | [23] > 100 µM | [24] > 100 µM | [26] > 100 µM | [27] 52.2 µM | [57] > 100 µM | [29] > 100 µM | [30] 18.4 µM | [31] > 100 µM | [32] > 100 µM | [33] 64 µM | [34] > 100 µM | [35] > 100 µM | [36] > 100 µM | [37] > 100 µM | [38] > 100 µM | [39] > 100 µM | [40] > 100 µM | [41] 40.3 µM | [42] > 100 µM | [43] > 100 µM | [44] > 100 µM | [45] > 100 µM | [46] > 100 µM | [47] > 100 µM | [48] > 100 µM | [49] 68.7 µM
> 100 µM: [53]
